Read-outs that look alike come from different tables or passages of the source.
Key:
[1] = tested on: A549 cells; experiment: cells; conditions: Homo sapiens, A549, 72 h; for CC50: read-out: LC50; for IC (TGI): read-out: TGI
How it was run: (§1)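 Human cancer lines grown in DMEM plus 10% FBS at 37° C. were plated at 5000 cells/well and left 18 hours before dosing. Test compounds (10 to 0.003 μg/mL, triplicates) acted for 72 hours, after which glutaraldehyde-fixed cells were stained with sulforhodamine B.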

[2] = tested on: HT29 cells; experiment: cells; conditions: Homo sapiens, HT-29, 72 h; for CC50: read-out: LC50; for IC (TGI): read-out: TGI
How it was run: as §1

[3] = tested on: MDA-MB-231 cells; experiment: cells; conditions: Homo sapiens, MDA-MB-231, 72 h; for CC50: read-out: LC50; for IC (TGI): read-out: TGI
How it was run: as §1

[4] = tested on: PSN1 cells; experiment: cells; conditions: Homo sapiens, PSN1, 72 h; for CC50: read-out: LC50; for IC (TGI): read-out: TGI
How it was run: as §1

[5] = tested on: MDA-MB-231 tumors; conditions: iv, 0.5 mg/kg
Protocol: (§2) Female athymic nu/nu mice (Harlan Laboratories Models, S. L. Barcelona, Spain or Envigo, Spain) were utilized for all experiments. Animal were housed in individually ventilated cages Sealsafe® Plus, Techniplast S.P.A.), up to ten per cage on a 12-hour light-dark cycle at 21-23° C. and 40-60% humidity. […] Animals were acclimated for at least 5 days prior to tumor implantation with a tumor cell suspension.
MDA-MB-231 cells were maintained in vitro at 37° C. with 5% CO2 in Dulbecco's Modified Eagle's Medium (Sigma-Aldrich, Co). Culture cells were passaged every 3 to 5 days upon reaching confluence.
(§3) Treatment tolerability was assessed by monitoring body weight evolution, clinical signs of systemic toxicity, as well as evidences of local damage in the injection site.
In xenograft studies with other cell lines: • Tumor volume was calculated using the equation (a·b^2)/2, where a: length (longest diameter) and b: width (shortest diameter) were measured in mm by using digital caliper (Fowler Sylvac, S235PAT).
(§4) Treatments producing >20% lethality and/or 20% net body weight loss were considered toxic.

[6] = tested on: H460 tumors; conditions: iv, 0.5 mg/kg
Protocol: as §2
H460 cells were maintained in vitro at 37° C. with 5% CO2 in Dulbecco's Modified Eagle's Medium (Sigma-Aldrich, Co). Culture cells were passaged every 3 to 5 days upon reaching confluence. Each animal was subcutaneously implanted (on the right flank using 26 G needle and a 1 cc syringe) at 4-6 weeks of age with 5×10^6 H460 cells suspended in 0.05 mL of a solution consisting of 50% Matrigel® (Corning Incorporated Life Sciences) and 50% medium without serum or antibiotics.
as §3, §4

[7] = tested on: A2780 tumors; conditions: A2780 xenograft
[8] = tested on: H82 tumors; experiment: In vivo xenograft, human lung (SCLC) H82; conditions: iv weekly, 32 and ET-736 0.5 mg/Kg
[9] = tested on: H526 tumors; experiment: In vivo xenograft, human lung (SCLC) H526; conditions: iv weekly, 32 and ET-736 0.5 mg/Kg
Protocol: Female athymic nu/nu mice (Harlan Laboratories Models, S. L. Barcelona, Spain or Envigo, Spain) were utilized for all experiments. Animal were housed in individually ventilated cages Sealsafe® Plus, Techniplast S.P.A.), up to ten per cage on a 12-hour light-dark cycle at 21-23° C. and 40-60% humidity. Mice were allowed free access to irradiated standard rodent diet (Tecklad 2914C) and sterilized water. Animals were acclimated for at least 5 days prior to tumor implantation with a tumor cell suspension.
H526 cells were grown as a suspension and maintained by addition of fresh medium, as the cell density increases, every 2 to 3 days. Every week, culture was reestablished by centrifugation of the suspension with subsequent resuspension in fresh medium at a concentration of 1×10^5 cell/mL. Each animal was subcutaneously implanted (on the right flank using 26 G needle and a 1 cc syringe) at 4-6 weeks of age with 5×10^6 H526 cells suspended in 0.05 mL of a solution consisting of 50% Matrigel® (Corning Incorporated Life Sciences) and 50% medium without serum or antibiotics.
as §3, §4

COc1c(C)cc2c(c1O)[C@@H]1[C@@H]3[C@@H]4SC[C@]5(NCCc6c5[nH]c5ccccc65)C(=O)OC[C@@H](c5c6c(c(C)c(OC(C)=O)c54)OCO6)N3[C@@H](O)[C@H](C2)N1C [ET-736, Ecteinascidin 736]
GI50 [1]: 22.5 nM | CC50 [1]: > 132 nM | IC (TGI) [1]: 47.7 nM | GI50 [2]: 21.2 nM | CC50 [2]: > 132 nM | IC (TGI) [2]: 22.5 nM | GI50 [3]: 21.2 nM | CC50 [3]: 47.7 nM | IC (TGI) [3]: 25.2 nM | GI50 [4]: 39.7 nM | CC50 [4]: 102 nM | IC (TGI) [4]: 59.6 nM | Median Tumor Volume ([5]; 0 h): 150.0 mm^3 | Median Tumor Volume ([5]; 48 h): 237.7 mm^3 | Median Tumor Volume ([5]; 120 h): 302.1 mm^3 | Median Tumor Volume ([5]; 168 h): 364.9 mm^3 | Median Tumor Volume ([5]; 336 h): 398.3 mm^3 | Median Tumor Volume ([5]; 384 h): 447.2 mm^3 | Median Tumor Volume ([5]; 456 h): 485.0 mm^3 | Median Tumor Volume ([5]; 504 h): 536.3 mm^3 | Median Tumor Volume ([5]; 552 h): 669.8 mm^3 | Median Tumor Volume ([5]; 672 h): 1046.1 mm^3 | Median Tumor Volume ([5]; 720 h): 1315.9 mm^3 | Median Tumor Volume ([5]; 840 h): 2007.7 mm^3 | Median Tumor Volume ([6]; 0 h): 185.8 mm^3 | Median Tumor Volume ([6]; 48 h): 457.8 mm^3 | Median Tumor Volume ([6]; 120 h): 732.8 mm^3 | Median Tumor Volume ([6]; 168 h): 930.1 mm^3 | Median Tumor Volume ([6]; 336 h): 1845.5 mm^3 | Median Tumor Volume ([6]; 384 h): 2025.0 mm^3 | Median Tumor Volume ([7]; Day 0): 168.8 mm^3 | Median Tumor Volume ([7]; Day 2): 251.2 mm^3 | Median Tumor Volume ([7]; Day 5): 382.6 mm^3 | Median Tumor Volume ([7]; Day 7): 676.1 mm^3 | Median Tumor Volume ([7]; Day 9): 959.4 mm^3 | Median Tumor Volume ([7]; Day 12): 1241.5 mm^3 | Median Tumor Volume ([7]; Day 14): 1582.7 mm^3 | Median Tumor Volume ([7]; Day 16): 1646.4 mm^3 | Median Tumor Volume ([7]; Day 19): 1845.5 mm^3 | Median Tumor Volume ([7]; Day 21): 2025.0 mm^3 | Median Tumor Volume ([8]; Table 64, Day 0): 170.0 mm^3 | Median Tumor Volume ([8]; Table 64, Day 2): 334.4 mm^3 | Median Tumor Volume ([8]; Table 64, Day 5): 539.4 mm^3 | Median Tumor Volume ([8]; Table 64, Day 7): 836.4 mm^3 | Median Tumor Volume ([8]; Table 64, Day 9): 1013.1 mm^3 | Median Tumor Volume ([8]; Table 64, Day 12): 1290.9 mm^3 | Median Tumor Volume ([8]; Table 64, Day 14): 1648.0 mm^3 | Median Tumor Volume ([9]; Table 63, Day 0): 213.5 mm^3 | Median Tumor Volume ([9]; Table 63, Day 2): 240.5 mm^3 | Median Tumor Volume ([9]; Table 63, Day 4): 97.2 mm^3 | Median Tumor Volume ([9]; Table 63, Day 7): 48.8 mm^3 | Median Tumor Volume ([9]; Table 63, Day 9): 62.5 mm^3 | Median Tumor Volume ([9]; Table 63, Day 11): 62.5 mm^3 | Median Tumor Volume ([9]; Table 63, Day 14): 47.3 mm^3 | Median Tumor Volume ([9]; Table 63, Day 16): 32.0 mm^3 | Median Tumor Volume ([9]; Table 63, Day 21): 4.0 mm^3 | Median Tumor Volume ([9]; Table 63, Day 28): 4.0 mm^3 | Median Tumor Volume ([9]; Table 63, Day 35): 4.0 mm^3 | Median Tumor Volume ([9]; Table 63, Day 42): 4.0 mm^3 | Median Tumor Volume ([9]; Table 63, Day 49): 4.0 mm^3 | Median Tumor Volume ([9]; Table 63, Day 56): 4.0 mm^3 | Median Tumor Volume ([9]; Table 63, Day 63): 4.0 mm^3 | Median Tumor Volume ([9]; Table 63, Day 70): 4.0 mm^3 | Median Tumor Volume ([9]; Table 63, Day 77): 4.0 mm^3 | Median Tumor Volume ([9]; Table 63, Day 84): 199.8 mm^3 | Median Tumor Volume ([9]; Table 63, Day 91): 786.5 mm^3

COc1c(C)cc2c(c1O)[C@@H]1[C@@H]3[C@@H]4SC[C@]5(NCCc6c5oc5ccccc65)C(=O)OC[C@@H](c5c6c(c(C)c(OC(C)=O)c54)OCO6)N3[C@@H](O)[C@H](C2)N1C [Compound 32]
GI50 [1]: 6.88 nM | CC50 [1]: > 13.2 nM | IC (TGI) [1]: > 13.2 nM | GI50 [2]: 6.88 nM | CC50 [2]: > 13.2 nM | IC (TGI) [2]: > 13.2 nM | GI50 [3]: 4.76 nM | CC50 [3]: > 13.2 nM | IC (TGI) [3]: 10.5 nM | GI50 [4]: 6.09 nM | CC50 [4]: 12 nM | IC (TGI) [4]: 8.34 nM | Median Tumor Volume ([5]; 0 h): 150.2 mm^3 | Median Tumor Volume ([5]; 48 h): 233.6 mm^3 | Median Tumor Volume ([5]; 120 h): 310.6 mm^3 | Median Tumor Volume ([5]; 168 h): 386.1 mm^3 | Median Tumor Volume ([5]; 336 h): 560.3 mm^3 | Median Tumor Volume ([5]; 384 h): 649.5 mm^3 | Median Tumor Volume ([5]; 456 h): 853.0 mm^3 | Median Tumor Volume ([5]; 504 h): 1017.5 mm^3 | Median Tumor Volume ([5]; 552 h): 1263.2 mm^3 | Median Tumor Volume ([5]; 672 h): 1726.6 mm^3 | Median Tumor Volume ([5]; 720 h): 1892.6 mm^3 | Median Tumor Volume ([6]; 0 h): 183.9 mm^3 | Median Tumor Volume ([6]; 48 h): 455.2 mm^3 | Median Tumor Volume ([6]; 120 h): 784.8 mm^3 | Median Tumor Volume ([6]; 168 h): 837.4 mm^3 | Median Tumor Volume ([6]; 336 h): 1845.5 mm^3 | Median Tumor Volume ([6]; 384 h): 2025.0 mm^3 | Median Tumor Volume ([7]; Day 0): 168.6 mm^3 | Median Tumor Volume ([7]; Day 2): 262.9 mm^3 | Median Tumor Volume ([7]; Day 5): 572.7 mm^3 | Median Tumor Volume ([7]; Day 7): 997.5 mm^3 | Median Tumor Volume ([7]; Day 9): 1359.9 mm^3 | Median Tumor Volume ([7]; Day 12): 1715.0 mm^3 | Median Tumor Volume ([7]; Day 14): 2025.0 mm^3 | Median Tumor Volume ([7]; Day 16): 2025.0 mm^3 | Median Tumor Volume ([8]; Table 64, Day 0): 171.6 mm^3 | Median Tumor Volume ([8]; Table 64, Day 2): 309.4 mm^3 | Median Tumor Volume ([8]; Table 64, Day 5): 485.0 mm^3 | Median Tumor Volume ([8]; Table 64, Day 7): 708.4 mm^3 | Median Tumor Volume ([8]; Table 64, Day 9): 972.6 mm^3 | Median Tumor Volume ([8]; Table 64, Day 12): 1101.6 mm^3 | Median Tumor Volume ([8]; Table 64, Day 14): 1339.6 mm^3 | Median Tumor Volume ([8]; Table 64, Day 16): 1430.3 mm^3 | Median Tumor Volume ([8]; Table 64, Day 19): 1885.7 mm^3 | Median Tumor Volume ([9]; Table 63, Day 0): 212.1 mm^3 | Median Tumor Volume ([9]; Table 63, Day 2): 277.3 mm^3 | Median Tumor Volume ([9]; Table 63, Day 4): 127.0 mm^3 | Median Tumor Volume ([9]; Table 63, Day 7): 95.0 mm^3 | Median Tumor Volume ([9]; Table 63, Day 9): 63.1 mm^3 | Median Tumor Volume ([9]; Table 63, Day 11): 62.5 mm^3 | Median Tumor Volume ([9]; Table 63, Day 14): 62.5 mm^3 | Median Tumor Volume ([9]; Table 63, Day 16): 62.5 mm^3 | Median Tumor Volume ([9]; Table 63, Day 21): 4.0 mm^3 | Median Tumor Volume ([9]; Table 63, Day 28): 4.0 mm^3 | Median Tumor Volume ([9]; Table 63, Day 35): 55.3 mm^3 | Median Tumor Volume ([9]; Table 63, Day 42): 85.3 mm^3 | Median Tumor Volume ([9]; Table 63, Day 49): 185.6 mm^3 | Median Tumor Volume ([9]; Table 63, Day 56): 169.1 mm^3 | Median Tumor Volume ([9]; Table 63, Day 63): 62.5 mm^3 | Median Tumor Volume ([9]; Table 63, Day 70): 88.9 mm^3 | Median Tumor Volume ([9]; Table 63, Day 77): 280.6 mm^3 | Median Tumor Volume ([9]; Table 63, Day 84): 694.2 mm^3 | Median Tumor Volume ([9]; Table 63, Day 91): 1150.9 mm^3

Reference: US10538535B2, “Antitumoral compounds” (priority 2017, dated 2020)
